What was measured:
[1] = biological target: T1, human serum albumin (HSA) (Homo sapiens, UniProt P02768); test: Fluorescence quenching of HSA with addition of extra anions (KClO4, KNO3); format: binding; settings: for K SV / K, binding constant / n, number of binding sites: HSA 5 µM; for effect of anion salt alone on HSA structure: without Ag and Hnor, up to the concentration maximum used in the experiments
T1 construct: I (residues 1–195), II (196–383), and III (384–585); purchased Sigma
Experimental: (§1) The samples of HSA were prepared in 20 mM phosphate buffer (pH 7.4), whereas silver complexes (1 mM) stock solution were prepared in DMSO and further diluted in 20 mM phosphate buffer to reach the desired concentration. In all the samples, the final concentration of DMSO was not more than 1%. The concentration of HSA was determined using the Beer–Lambert law with the molar extinction coefficient of 36500 M^−1·cm^−1 at 280 nm. To study structural changes in HSA by the addition of [Ag(I)(Hnor)2](anion) compounds, the UV absorption spectra were measured, by variation of the concentration of the [Ag(I)(Hnor)2](anion) compounds, while keeping the concentration of HSA constant. UV absorption spectra, from 240 nm to 320 nm, were recorded on a Perkin–Elmer Lambda 45 spectrophotometer at 25°C. Quartz cuvettes of 1 cm path length were used for the measurements. Fluorescence measurements were performed on a Hitachi spectrofluorometer (Model F 7000) equipped with a PC. The fluorescence spectra were collected at 25°C with a path length cell of 1 cm. The slit width used was 5 nm with a protein concentration of 5 µM. The used excitation wavelength for the protein was 295 nm.
Given the fact that the highest anticancer activity and also the most substantial HSA interaction takes place in case of the perchlorate and nitrate salts, it was decided to add extra perchlorate (and also nitrate) for all cases and to study the effect on the binding affinity. So, we carried out two sets of experiments and studied the binding propensity of Ag(I) compounds with HSA. In one experiment, the extra ClO4 ^− anion was added in a 1 : 4 ratio, compared to the Ag compound. In a second experiment, we used additional nitrate together with the Ag(I) compounds. Details are given in Figures 6 and 7, and the quite similar details for the other 3 compounds are presented in Figures S5 and S6 in Supplementary Materials.
To determine the role of only the anions (i.e., without Ag and Hnor), we also used KClO4 and KNO3 and studied their HSA binding by adding variable amounts of anions to the concentration maximum used in the experiments. […] When the extra anions + compounds were titrated, the results obtained did show an exponential increase in binding affinity of the Ag(I) compounds.
The binding strength was evaluated by calculating the Stern–Volmer constant (K sv), a number of the binding sites (n) and Gibbs free energy (ΔG); (Table 2). […] However, no correlation with the size of these four anions is seen.

[2] = biological target: T1, human serum albumin (HSA); test: Fluorescence quenching titration of HSA (Stern–Volmer analysis); format: binding; settings: for K SV, Stern–Volmer quenching constant: 20 mM phosphate buffer pH 7.4, 25°C, excitation 295 nm; for redshift at the maximal emission wavelength of Tyr and Trp residues of HSA: increasing compound concentration; for K q, bimolecular quenching rate constant: Kq = KSV/τ0, τ0 = 10^−8 s, 25°C; for ∆G, standard free energy change of binding: ΔG = −2.303 RT logK
Experimental: as §1
(§2) All the spectra were recorded after equilibration of the reaction mixture for 5 min.
The interaction between metal compounds and proteins has been widely investigated by using fluorescence spectroscopies. The luminescence response of HSA, upon addition of different concentrations of Ag(I) compounds, was studied in 20 mM phosphate buffer by using an emission titration experiment. Preliminary luminescence studies of the four starting Ag compounds 1–4 have been reported earlier by some of us. The excitation at 290 nm for all four compound results in a strong luminescence band at around 370 nm. The fluorescence studies of the ligand “Hnor” as well as the free silver salt, “AgNO3,” were also studied under the same conditions to compare the effect of separate entities with a combination of the two. Upon excitation at 295 nm, fluorescence intensity around 340 nm is known to reflect the changes of the tryptophan residue microenvironment. […] In Figure S3, similar data are presented for compounds 2–4, with only marginal differences upon anion variation.
The interaction of the Ag compounds with HSA was quantified; the Stern–Volmer equation has been employed:(1) F0/F=1+KSVQ=1+Kqτ0Q, where F 0 and F are the steady-state fluorescence intensities in the absence and presence of quencher at 340 nm, respectively. K sv is the Stern–Volmer quenching constant, K q stands for bimolecular quenching constant, τ 0 is the lifetime of the fluorophore in the absence of quencher, and [Q] is the concentration of quencher (i.e., the Ag compound). By calculating the quenching rate constants, K q, one can distinguish between the static quenching and the dynamic quenching, and this was evaluated by using the following equation:(2) Kq=KSV/τ0.
The value of tau(zero), τ 0, for biopolymers is known to be 10^−8 s. The Stern–Volmer quenching constant (K sv) for the fluorometric titration of the Ag(I) compounds into HSA solution was calculated from the linear relationship between F 0/F and [Ag(I)(Hnor)2]ClO4 (Figure 5) and enlisted in Table 1. In Figure S4, similar data are presented for compounds 2–4, confirming the above observations.
The equilibrium between free and bound molecules, when small molecules bind independently to a set of similar sites on a macromolecule, was ascertained by a modified Stern–Volmer equation [42]:(3) logF0−F/F=logK+n logQ, where K and n are the binding constant and the number of binding sites, respectively. A plot of log(F 0 − F/F) versus log[Q] was used to determine the value of K and n (inset in Figure 5). Several forces, like electrostatic, hydrogen bonds, weak van der Waals, hydrophobic, and steric contacts, can be thought of being responsible for the interaction between the albumin and Ag compounds. […]

[3] = biological target: T1, human serum albumin (HSA); test: UV absorption spectra of HSA with Ag(I) compounds; format: binding; settings: HSA 5 µM, with hyperchromism
Experimental: as §1, §2

[4] = biological target: T1, human serum albumin (HSA); test: Far-UV circular dichroism of HSA, α-helix content; format: binding; parameters: unit of the concentration uncertain; settings: HSA 20 µM, free HSA 67.03
Experimental: CD measurements were carried out on a Jasco spectropolarimeter (Model J-815) equipped with a microcomputer. The instrument was calibrated with D-10-camphorsulfonic acid. All the CD measurements were performed at 25°C with a thermostatically controlled cell holder, attached to a Neslab RTE-110 water bath with an accuracy of ±0.1°C. Spectra were collected with a scan speed of […] and a response time of 1 s. Each spectrum was taken as the average of three scans. The far-UV CD spectra were measured at a protein concentration of 20 µM at a path length of 1 cm.
as §2
The CD signal, expressed in millidegree, obtained over the wavelength range of 190–250 nm, was converted to a mean residue ellipticity (MRE, θ), using the following conversion:(5) MRE=θobs mdeg/10×n×Cp×l, where θ obs is the CD in millidegree, the number of amino acid residues (585) is given by n, “l” is the path length (cm), and C p is the molarity. The unit of MRE is deg·cm^2·dmol^−1.

[5] = tested on: two different cancer cell lines; parameters: method as in PMID 25042730; settings: previous study; cited from earlier work
[6] = Set A: +extra ClO4− (KClO4, 1:4 ratio)
[7] = Set B: +extra NO3− (KNO3, 1:4 ratio)
[8] = modified Stern–Volmer equation, HSA 5 µM, pH 7.4, 25°C
[9] = compound concentration 20 (unit uncertain)
[10] = compound concentration 40 (unit uncertain)
[11] = compound concentration 60 (unit uncertain)
[12] = compound concentration 80 (unit uncertain)
[13] = compound concentration 100 (unit uncertain)

T1 sequence (P02768 25-609): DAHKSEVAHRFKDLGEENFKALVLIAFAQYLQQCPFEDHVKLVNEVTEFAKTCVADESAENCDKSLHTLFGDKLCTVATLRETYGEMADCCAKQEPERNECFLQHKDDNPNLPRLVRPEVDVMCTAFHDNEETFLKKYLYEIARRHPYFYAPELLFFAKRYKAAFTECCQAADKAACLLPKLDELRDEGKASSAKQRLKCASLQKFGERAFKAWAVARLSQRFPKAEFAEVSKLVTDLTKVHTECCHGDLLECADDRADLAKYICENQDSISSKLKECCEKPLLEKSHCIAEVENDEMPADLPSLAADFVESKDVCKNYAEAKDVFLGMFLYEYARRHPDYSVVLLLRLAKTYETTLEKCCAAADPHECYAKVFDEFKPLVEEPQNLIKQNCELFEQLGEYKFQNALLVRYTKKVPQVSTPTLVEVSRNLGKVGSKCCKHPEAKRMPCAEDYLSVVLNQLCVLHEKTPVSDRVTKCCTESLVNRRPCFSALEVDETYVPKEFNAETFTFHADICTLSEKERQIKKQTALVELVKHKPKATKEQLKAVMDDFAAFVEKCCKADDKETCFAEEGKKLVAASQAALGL

| SMILES | K SV [1, 6] | K, binding constant [1, 6] | n, number of binding sites [1, 6] | ∆G [1, 7] | K SV [1, 7] | K, binding constant [1, 7] | n, number of binding sites [1, 7] | K SV, Stern–Volmer quenching constant ([2]; HSA 5 µM) | redshift at the maximal emission wavelength of Tyr and Trp residues of HSA ([2]; HSA 5 µM) | K q, bimolecular quenching rate constant ([2]; HSA 5 µM) | K, binding constant [2, 8] | n, number of binding sites [2, 8] | ∆G, standard free energy change of binding [2] | redshift (bathochromic effect) of HSA UV absorbance [3] | % α-helix of HSA [4, 9] | % α-helix of HSA [4, 10] | % α-helix of HSA [4, 11] | % α-helix of HSA [4, 12] | % α-helix of HSA [4, 13] | other results |
| --- | --- | --- | --- | --- | --- | --- | --- | --- | --- | --- | --- | --- | --- | --- | --- | --- | --- | --- | --- | --- |
| CC#N.F[P-](F)(F)(F)(F)F.[Ag+].c1ccc2c(c1)[nH]c1cnccc12.c1ccc2c(c1)[nH]c1cnccc12 [Compound 3, [Ag(Hnor)2(MeCN)](PF6)] | 0.84 10^7 M^−1 | 0.46 10^10 M^−1 | 1.55 | -12.19 kcal/mol | 0.80 10^7 M^−1 | 0.08 10^10 M^−1 | 1.41 | 4.53 10^5 M^−1 | 4 nm | 45.3 10^12 M^−1·s^−1 | 0.55 10^6 M^−1 | 1.2 | -7.823 kcal/mol | 5 nm | 63.57% | 62.57% | 60.37% | 56.31% | 47.18% | ∆G [1, 6]: -13.18 kcal/mol |
| O=[N+]([O-])[O-].[K+] [KNO3, reference compound] | – | – | – | – | – | – | – | – | – | – | – | – | – | – | – | – | – | – | – | effect of anion salt alone on HSA structure [1]: negligible perturbance of the HSA structure |
| c1ccc2c(c1)[nH]c1cnccc12 [Hnor, 9H-pyrido[3,4-b]indole, reference compound] | – | – | – | – | – | – | – | 2.95 10^5 M^−1 | – | 29.5 10^12 M^−1·s^−1 | – | 1.0 | -7.505 kcal/mol | – | – | – | – | – | – | Kd ([2]; modified Stern–Volmer equation, HSA 5 µM, pH 7.4, 25°C, read-out: K, binding constant (converted)): 3.03 µM |
| [Ag+].[O-][Cl+3]([O-])([O-])[O-].c1ccc2c(c1)[nH]c1cnccc12.c1ccc2c(c1)[nH]c1cnccc12 [Compound 1, [Ag(Hnor)2](ClO4)] | 2.21 10^7 M^−1 | 17.2 10^10 M^−1 | 1.77 | -14.4 kcal/mol | 2.06 10^7 M^−1 | 3.64 10^10 M^−1 | 1.64 | 5.37 10^5 M^−1 | 7 nm | 53.7 10^12 M^−1·s^−1 | 3.74 10^6 M^−1 | 1.1 | -8.963 kcal/mol | 7 nm | 64.07% | 62.23% | 58.59% | 50.18% | 35.63% | anticancer activity [5]: comparable to cisplatin; ∆G [1, 6]: -15.33 kcal/mol |
| F[B-](F)(F)F.[Ag+].c1ccc2c(c1)[nH]c1cnccc12.c1ccc2c(c1)[nH]c1cnccc12 [Compound 4, [Ag(Hnor)2](BF4)] | 1.85 10^7 M^−1 | 1.19 10^10 M^−1 | 1.69 | -13.07 kcal/mol | 1.38 10^7 M^−1 | 0.38 10^10 M^−1 | 1.48 | 3.97 10^5 M^−1 | 4 nm | 39.7 10^12 M^−1·s^−1 | 1.14 10^6 M^−1 | 1.1 | -8.258 kcal/mol | 6 nm | 65.25% | 63.82% | 61.53% | 56.66% | 47.52% | – |
| O=[N+]([O-])[O-].[Ag+].c1ccc2c(c1)[nH]c1cnccc12.c1ccc2c(c1)[nH]c1cnccc12 [Compound 2, [Ag(Hnor)2](NO3)] | 1.29 10^7 M^−1 | 6.05 10^10 M^−1 | 1.58 | -13.4 kcal/mol | 1.24 10^7 M^−1 | 0.66 10^10 M^−1 | 1.53 | 5.34 10^5 M^−1 | 5 nm | 53.4 10^12 M^−1·s^−1 | 3.64 10^6 M^−1 | 1.0 | -8.948 kcal/mol | 5 nm | 62.85% | 61.61% | 58.41% | 52.02% | 42.73% | – |
| [K+].[O-][Cl+3]([O-])([O-])[O-] [KClO4, reference compound] | – | – | – | – | – | – | – | – | – | – | – | – | – | – | – | – | – | – | – | effect of anion salt alone on HSA structure [1]: negligible perturbance of the HSA structure |
| O=[N+]([O-])[O-].[Ag+] [AgNO3, reference compound] | – | – | – | – | – | – | – | 3.10 10^5 M^−1 | – | 31.0 10^12 M^−1·s^−1 | 1.94 10^6 M^−1 | 1.1 | -8.576 kcal/mol | – | – | – | – | – | – | – |

Reference: paper PMC5889910, “β-Carboline Silver Compound Binding Studies with Human Serum Albumin: A Comprehensive Multispectroscopic Analysis and Molecular Modeling Study” (Bioinorganic Chemistry and Applications, 2018)
